Assay results: paper PMC4155923 (AIDS (London, England), 2012)
Like-named read-outs stand apart in the source and are kept apart here.

Legend:
CD8+ T cells = details: abacavir hypersensitivity; ref [14]; cited from earlier work
[1] = test system: patients expressing HLA risk alleles; details: cited from earlier work
sHLA-B*57:01 [2] = biological target: T1, sHLA-B*57:01 (Homo sapiens, UniProt P01889); test: Drug effect on LF9FITC peptide binding to sHLA-B*57:01
HLA-B*57:01 = type: cell-based, human; details: abacavir-treated cells
sHLA-B*57:01 [3] = biological target: T1, sHLA-B*57:01; test: HLA-B*57:01 fluorescence polarization competition peptide-binding assay; details: competition with LF9FITC; for affinity for HLA-B*57:01 (in words): fluorescence polarization, no abacavir
[4] = biological target: Soluble HLA-B*57:01 (human | human (endogenous in 721.221)); test: fluorescence polarisation

Nc1nc(NC2CC2)c2ncn([C@H]3C=C[C@@H](CO)C3)c2n1 [Abacavir, abacavir]
requirements of CD8+ T-cell response (CD8+ T cells): CD8^+ T-cell responses require transporter of antigen presentation (TAP)/tapasin expression, antigen processing and specific amino acids in the F pocket of HLA-B*57:01 | tolerance of abacavir in HLA-B*57:01 individuals ([1]; HLA-B*57:01 individuals, ref (1)): Many HLA-B*57:01 individuals are able to tolerate abacavir and not show hypersensitivity | HLA-associated drug reaction ([1]; drug hypersensitivity, HLA-B*57:01, ref [1]–[3]): linked to HLA-B*57:01 | LF9FITC reference binding signal in competition experiment (sHLA-B*57:01 [2]; 200 μmol/l abacavir, in presence of competitor peptide HSL or STIR): expected increase in reference LF9FITC peptide binding signal with abacavir | concentration at which the increase in LF9FITC binding starts (sHLA-B*57:01 [2]; fluorescence polarization at equilibrium): 10 µmol/L | covalent drug-peptide adducts in peptide fractions (HLA-B*57:01): we have not, as yet, identified covalent drug–peptide adducts in the peptide fractions

Oc1ncnc2[nH]ncc12 [allopurinol]
HLA-associated drug reaction ([1]; severe cutaneous adverse reactions, HLA-B*58:01, ref [7]): Severe cutaneous adverse reactions associated with class I HLA

NC(=O)N1c2ccccc2C=Cc2ccccc21 [carbamazepine]
HLA-associated drug reaction ([1]; severe cutaneous adverse reactions, HLA-B*15:02 [4], B*15:11 [5], A*31:01 [6], ref [4]–[6]): Severe cutaneous adverse reactions associated with class I HLA

Cc1onc(-c2c(F)cccc2Cl)c1C(=O)N[C@@H]1C(=O)N2[C@@H]1SC(C)(C)[C@@H]2C(=O)O [flucloxacillin]
HLA-associated drug reaction ([1]; liver injury, HLA-B*57:01, ref [8]): causes drug-induced liver injury in patients expressing HLA-B*57:01

LSSPVTKSF [LF9]
affinity for HLA-B*57:01 (in words) (sHLA-B*57:01 [3]): consistent with high-affinity binding

STIRLLTSL
affinity for HLA-B*57:01 (in words) (sHLA-B*57:01 [3]): could strongly compete in the HLA-B*57:01 peptide-binding assay (Fig. 4a and b), with logIC50 values consistent with high-affinity binding | effect of abacavir on IC50 / inhibition by competitor peptide (sHLA-B*57:01 [3]; presence vs absence of 200 μmol/l abacavir): No significant difference in inhibition

LSSPVTKSF [LF9 (…)]
log IC50 [4]: 2.6
